# Measured values as given in patent US12371459B2, “Antimicrobial peptide derived from Pseudin-2 peptide and uses thereof” (INDUSTRY-ACADEMIC COOPERATION FOUNDATION, CHOSUN UNIVERSITY, priority 2019, dated 2025).
# Ends that are not written are not given here.
# Tests used:
# S. aureus (CCARM 3518) = settings: 24 hours at 37° C.
# S. aureus (ATCC 25923) = settings: 24 hours at 37° C.
# E. coli (ATCC 25922) = settings: 24 hours at 37° C.
# P. aeruginosa 4891 = settings: P. aeruginosa 4891, 24 hours at 37° C.
# E. coli (CCARM 1229) = settings: 24 hours at 37° C.
# [1] = tested on: P. aeruginosa (ATCC 27853); settings: 24 hours at 37° C.
# E. coli (CCARM 1238) = settings: 24 hours at 37° C.
# S. aureus (CCARM 3090) = settings: 24 hours at 37° C.
# P. aeruginosa 4007 = settings: P. aeruginosa 4007, 24 hours at 37° C.
# Staphylococcus aureus [2] = test: Flow cytometry, propidium iodide, effect on bacteria membrane; assay type: cell-based; settings: peptide at MIC
# Experimental: (§1) After that, the supernatant was removed by centrifuge (10,000 rpm) and stained with propidium iodide (PI, concentration of 10 μg/ml) for 30 minutes at 4° C. Thereafter, unbound propidium iodide was removed by centrifuge, and the problem of cell aggregation phenomenon was solved by adding physiological saline (PBS) in an amount of 1 ml.
# Escherichia coli [3] = test: as above; assay type: cell-based; settings: peptide at MIC
# Experimental: as §1
# [4] = Cytotoxicity in normal cell line (MTT); settings: human, HaCaT keratinocyte cells
# Experimental: (§2) To determine the cytotoxicity of the peptides produced by the method of Example 1 in normal cell line, cytotoxicity was measured by using human keratinocyte cell line (HaCaT cell line, Dr. N E. Fusenig, Heidelberg, Germany).
# (§3) Specifically, HaCaT cells, which have been cultured in DMEM medium containing 10% FBS (fetal bovine serum), were aliquoted in a microtiter plate to have 2×10^5 cells per well. […] Twenty-four hours later, a reaction solution containing 0.5 mg/ml MTT (thiazolyl blue tetrazolium bromide) dissolved in phosphate buffered saline (PBS) was added in an amount of 100 μl to each well and the reaction was allowed to occur for 4 hours. After that, the supernatant was discarded, and, by dissolving MTT crystals that are formed by adding 200 μl DMSO (dimethyl sulfoxide), the absorbance at 560 nm was measured to determine the cell survival ability.
# Staphylococcus aureus [5] = test: Scanning electron microscopy (SEM), membrane damage; assay type: cell-based; settings: peptide at MIC, 1 hour at 37° C.
# Experimental: (§4) As a control, cells applied with no peptide were used. After the culture, the cells were collected, and, by using 2.5% glutaraldehyde, the bacterial cells were treated for 18 hour at 4° C. After carrying out washing two times with PBS buffer solution, the fixed cells were dehydrated in stepwise manner by using 100% ethanol and diluted ethanol (50%, 70%, 90% and 100%). After the dehydration followed by drying, the specimen was coated with platinum and determination was made by low vacuum scanning electron microscopy.
# Escherichia coli [6] = test: as above; assay type: cell-based; settings: peptide at MIC, 1 hour at 37° C.
# Experimental: as §4
# [7] = tested on: erythrocytes of a mouse (Balb/c); test: Erythrocyte hemolytic activity; settings: 1 hour at 37° C.
# Experimental: To compare the cytotoxicity among the peptides that are produced by the method of Example 1, erythrocyte hemolytic activity of the synthesized peptide was measured.
# After that, the amount of hemoglobin contained in a supernatant collected by centrifuge at 1,000×g was determined by measuring the absorbance at a wavelength of 414 nm. As a control to be used as a reference for cell disruption level, the supernatant collected by a treatment with 1% Triton X-100 (Sigma, USA) and a reaction for 1 hour at 37° C. was used to measure the absorbance. By setting the resulting absorbance value at 100% of the erythrocyte hemolytic activity, hemolysis of each peptide was calculated using the following equation 1. Erythrocyte disrupting ability (%)=(Absorbance A−Absorbance B)/(Absorbance C−Absorbance B)×100 Equation 1 (in the above equation, Absorbance A indicates the absorbance of a reaction solution treated with each peptide, in which the absorbance is measured at a wavelength of 414 nm; Absorbance B indicates the absorbance of a reaction solution treated with PBS, in which the absorbance is measured at a wavelength of 414 nm; and Absorbance C indicates the absorbance of a reaction solution treated with 1% Triton X-100, in which the absorbance is measured at a wavelength of 414 nm).
# plasmid DNA (pRSETB) = test: Binding between antimicrobial peptide and DNA (agarose gel electrophoresis); settings: plasmid DNA 300 ng, peptide/DNA ratio 0.25:1 to 4:1, 10 minutes at 37° C.
# Experimental: Specifically, plasmid DNA (pRSETB, 300 ng) and the peptide were reacted for at different ratio (i.e., peptide/DNA ratio was 0 (DNA only), 0.25:1, 0.5:1, 1:1, 1.5:1, 2:1, 3:1, or 4:1) for 10 minutes at 37° C. After that, electrophoresis was carried out using 1% agarose gel followed by staining with ethidium bromide (EtBr) and UV determination.
# [8] = tested on: Listeria monocytogenes KCTC 3710; settings: KCTC 3710, 18 h
# Description: (§5) To compare the antimicrobial activity among the peptides produced by the method of Example 1, the inventors of the present invention measured the minimal growth inhibitory concentration (MIC), which is minimum concentration of the peptide not allowing any […] of bacterial cells.
# (§6) Specifically, the bacterial strains described in the following Table 2 were purchased and cultured to a mid-log phase in a medium that is appropriate for each strain. […] After the addition to a plate, the cells were cultured for 18 hours at 37° C. […] As a control, Pseudin-2 as a mother peptide was used.
# [9] = tested on: Escherichia coli CCARM 1229 (tolerance to antibiotics)
# Description: as §5, §6
# [10] = tested on: Staphylococcus aureus ATCC 25923; settings: ATCC 25923, 18 h
# Description: as §5, §6
# [11] = tested on: Bacillus subtilis KCTC 1998; settings: KCTC 1998, 18 h
# Description: as §5, §6
# [12] = tested on: Staphylococcus aureus CCARM 3518 (tolerance to antibiotics)
# Description: as §5, §6
# [13] = tested on: Pseudomonas aeruginosa isolated strain 4891 (tolerance to antibiotics)
# Description: as §5, §6
# [14] = tested on: Pseudomonas aeruginosa ATCC 27853; settings: ATCC 27853, 18 h
# Description: as §5, §6
# [15] = tested on: Trichosporon beigelii KCTC 7707; settings: KCTC 7707, 18 h
# Description: as §5, §6
# [16] = tested on: Salmonella typhimurium KCTC 1926; settings: KCTC 1926, 18 h
# Description: as §5, §6
# [17] = tested on: Pseudomonas aeruginosa isolated strain 4007 (tolerance to antibiotics)
# Description: as §5, §6
# [18] = tested on: Escherichia coli CCARM 1238 (tolerance to antibiotics)
# Description: as §5, §6
# [19] = tested on: Escherichia coli ATCC 25922; settings: ATCC 25922, 18 h
# Description: as §5, §6
# [20] = tested on: Candida albicans KCTC 7270; settings: KCTC 7270, 18 h
# Description: as §5, §6
# [21] = tested on: Staphylococcus aureus CCARM 3090 (tolerance to antibiotics)
# Description: as §5, §6
# [22] = tested on: human keratinocyte cell line (HaCaT); test: in vitro; settings: HaCaT keratinocyte cells, 24 h, 100 µM
# Experimental: as §2, §3
compound,measurement,setting,value
O=C(O)c1cn(C2CC2)c2cc(N3CCNCC3)c(F)cc2c1=O [Ciprofloxacin],Biofilm minimal inhibitory concentration,S. aureus (CCARM 3518),>400 µM
same,Biofilm minimal inhibitory concentration,S. aureus (ATCC 25923),4 µM
same,Biofilm minimal inhibitory concentration,E. coli (ATCC 25922),2 µM
same,Biofilm minimal inhibitory concentration,P. aeruginosa 4891,>400 µM
same,Biofilm minimal inhibitory concentration,E. coli (CCARM 1229),128 µM
same,Biofilm minimal inhibitory concentration,[1],2 µM
same,Biofilm minimal inhibitory concentration,E. coli (CCARM 1238),128 µM
same,Biofilm minimal inhibitory concentration,S. aureus (CCARM 3090),>400 µM
same,Biofilm minimal inhibitory concentration,P. aeruginosa 4007,>400 µM
LNALKKVFQGIHEAIKKI-NH2 [Pse-T3],Membrane disrupting ability compared with Pseudin-2,Staphylococcus aureus [2],higher membrane disrupting ability than Pseudin-2
same,Membrane disrupting ability compared with Pseudin-2,Escherichia coli [3],higher membrane disrupting ability than Pseudin-2
same,"viability at 24 h, 3.13 µM",[4],100%
same,"viability at 24 h, 6.25 µM",[4],100%
same,"viability at 24 h, 12.5 µM",[4],100%
same,"viability at 24 h, 25 µM",[4],100%
same,"viability at 24 h, 50 µM",[4],100%
same,"viability at 24 h, 100 µM",[4],90.3%
same,Membrane damage by SEM,Staphylococcus aureus [5],higher damage and disruption of cell membrane
same,Membrane damage by SEM,Escherichia coli [6],rougher than the cells treated with Pseudin-2
same,Erythrocyte disrupting ability,[7]; peptide concentration 3.13 μM,0%
same,Erythrocyte disrupting ability,[7]; peptide concentration 6.25 μM,0%
same,Erythrocyte disrupting ability,[7]; peptide concentration 12.5 μM,0%
same,Erythrocyte disrupting ability,[7]; peptide concentration 25 μM,0.5%
same,Erythrocyte disrupting ability,[7]; peptide concentration 50 μM,2.2%
same,Erythrocyte disrupting ability,[7]; peptide concentration 100 μM,5.6%
same,Binding to DNA,plasmid DNA (pRSETB),showed binding to DNA
WLNALKKVWQGIHEAIKLIWNWVQ-NH2 [Pse-Anal4],Minimal inhibitory concentration,[8],32 µM
same,Minimal inhibitory concentration,[9],32 µM
same,Minimal inhibitory concentration,[10],32 µM
same,Minimal inhibitory concentration,[11],32 µM
same,Minimal inhibitory concentration,[12],32 µM
same,Minimal inhibitory concentration,[13],64 µM
same,Minimal inhibitory concentration,[14],16 µM
same,Minimal inhibitory concentration,[15],32 µM
same,Minimal inhibitory concentration,[16],16 µM
same,Minimal inhibitory concentration,[17],64 µM
same,Minimal inhibitory concentration,[18],32 µM
same,Minimal inhibitory concentration,[19],16 µM
same,Minimal inhibitory concentration,[20],32 µM
same,Minimal inhibitory concentration,[21],32 µM
same,Cell survival ability,[22],10.8%
same,"viability at 24 h, 3.13 µM",[4]; Cell survival ability,46.1%
same,"viability at 24 h, 6.25 µM",[4]; Cell survival ability,35.1%
same,"viability at 24 h, 12.5 µM",[4]; Cell survival ability,25.4%
same,"viability at 24 h, 25 µM",[4]; Cell survival ability,20.8%
same,"viability at 24 h, 50 µM",[4]; Cell survival ability,15.3%
same,"viability at 24 h, 100 µM",[4]; Cell survival ability,10.1%
